Results as given in US20240041042A1, “1-(PYRIDYL)-5-AZINYLPYRAZOLE DERIVATIVES, AND THEIR USE FOR CONTROL OF UNDESIRED PLANT GROWTH” (Bayer Aktiengesellschaft, priority 2020, published 2024).
Like-named read-outs stand apart in the source and are kept apart here.

Tests used:
Type in all cases: in vivo
[1] = system: Polygonum convolvulus (POLCO); assay: Post-emergence herbicidal action against POLCO
How it was run: (§1)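 Post-emergence greenhouse spray, one-leaf stage, 600 l/ha water plus 0.5% additive; WP or EC formulations; application rates 320 g/ha or lower. Visual % damage vs untreated controls at ~3 weeks.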

[2] = system: Verconica persica (VERPE); assay: Post-emergence herbicidal action against VERPE
How it was run: as §1

[3] = system: Alopecurus myosuroides (ALOMY); assay: Post-emergence herbicidal action against ALOMY; details: visual rating about 3 weeks after treatment vs untreated controls (100% = plants have died, 0% = like control plants)
How it was run: as §1

[4] = system: Abutilon theophrasti (ABUTH); assay: Post-emergence herbicidal action against ABUTH; details: visual rating about 3 weeks after treatment vs untreated controls (100% = plants have died, 0% = like control plants)
How it was run: as §1

[5] = system: Echinochloa crus-galli (ECHCG); assay: Post-emergence herbicidal action against ECHCG
How it was run: as §1

[6] = system: Setaria viridis (SETVI); assay: Post-emergence herbicidal action against SETVI
How it was run: as §1

[7] = system: Viola tricolor (VIOTR); assay: Post-emergence herbicidal action against VIOTR
How it was run: as §1

[8] = system: Triticum aestivum (TRZAS); details: crop plant compatibility, 20 g/ha, effect vs untreated controls
How it was run: (§2)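 Greenhouse crops in sandy loam sprayed post-emergence at the one-leaf stage, 2–3 weeks after sowing, with WP or EC formulations in water plus 0.5% additive at 600 l/ha. Damage rated visually about 3 weeks later versus untreated controls (0% = like control, 100% = dead); suffixes a–c denote different doses.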

[9] = system: Oryza sativa (ORYSA); details: crop plant compatibility
How it was run: as §2

[10] = system: Zea mays (ZEAMX); details: for Post-emergence action against ZEAMX in % (crop plant compatibility): 20 g/ha, effect in comparison to untreated controls; for Post-emergence action against ZEAMX in %: crop plant compatibility, effect vs untreated controls
How it was run: as §2

[11] = system: Amaranthus retroflexus (AMARE); assay: Post-emergence herbicidal action against AMARE
How it was run: as §1

[12] = system: Matricaria inodora (MATIN); assay: Post-emergence herbicidal action against MATIN
How it was run: as §1

[13] = system: Pharbitis purpurea (PHBPU); assay: Post-emergence herbicidal action against PHBPU
How it was run: as §1

[14] = system: Avena fatua (AVEFA); assay: Post-emergence herbicidal action against AVEFA; details: 320 g/ha, visual rating about 3 weeks after treatment
How it was run: as §1

[15] = system: Digitaria sanguinalis (DIGSA); assay: Post-emergence herbicidal action against DIGSA; details: visual rating about 3 weeks after treatment
How it was run: as §1

[16] = system: Lolium rigidum (LOLRI); assay: Post-emergence herbicidal action against LOLRI
How it was run: as §1

[17] = 20 g/ha, effect vs untreated controls
[18] = 80 g/ha, visual rating about 3 weeks after treatment vs untreated controls (100% = plants have died, 0% = like control plants)
[19] = 320 g/ha, visual rating about 3 weeks after treatment
[20] = 80 g/ha, effect in comparison to untreated controls

Row | Post-emergence action against TRZAS in % [8] [%] | Post-emergence action against ORYSA in % [9, 17] [%] | SMILES | Post-emergence action against POLCO in % ([1]; dosage 320 g/ha) [%] | Post-emergence action against VERPE in % ([2]; 320 g/ha, VERPE) [%] | Post-emergence action against VERPE in % ([2]; dosage 80 g/ha) [%] | Post-emergence action against ALOMY in % ([3]; 320 g/ha) [%] | Post-emergence action against ABUTH in % ([4]; 80 g/ha) [%] | Post-emergence action against ABUTH in % ([4]; 320 g/ha) [%] | Post-emergence action against ECHCG in % ([5]; dosage 80 g/ha) [%] | Post-emergence action against ECHCG in % ([5]; dosage 320 g/ha) [%] | Post-emergence action against SETVI in % ([6]; dosage 320 g/ha) [%] | Post-emergence action against VIOTR in % ([7]; 80 g/ha) [%] | Post-emergence action against VIOTR in % ([7]; 320 g/ha) [%] | Post-emergence action against AMARE in % [11, 19] [%] | Post-emergence action against MATIN in % ([12]; dosage 80 g/ha) [%] | Post-emergence action against MATIN in % ([12]; dosage 320 g/ha) [%] | Post-emergence action against PHBPU in % ([13]; dosage 80 g/ha) [%] | Post-emergence action against PHBPU in % ([13]; dosage 320 g/ha) [%] | Post-emergence action against AVEFA in % [14] [%] | Post-emergence action against DIGSA in % ([15]; 320 g/ha) [%] | also measured
1 | 10 | 0 | Cc1ncccc1-n1nc(OCC(=O)OCC2CCCO2)c(Br)c1-c1cncc(F)c1 (stereo not drawn) [II-43] | 80 | 90 | 90 | 100 | – | 80 | – | 90 | 90 | 90 | 90 | 90 | – | 80 | 80 | 90 | 90 | 80 | Post-emergence action against ORYSA in % [9, 20]: 0%; Post-emergence action against ORYSA in % ([9]; 320 g/ha, effect in comparison to untreated controls): 0%; Post-emergence action against ZEAMX in % (crop plant compatibility) [10]: 0%; Post-emergence action against ZEAMX in % ([10]; 80 g/ha): 20%
2 | 20 | 10 | CCOC(=O)COc1nn(-c2ccncc2F)c(-c2ccc(F)nc2)c1Br [III-29] | 80 | 80 | – | 90 | – | 80 | 80 | 80 | 90 | – | – | – | 80 | 90 | 80 | 90 | – | 90 | Post-emergence action against ORYSA in % [9, 20]: 20%; Post-emergence action against ZEAMX in % (crop plant compatibility) [10]: 10%; Post-emergence action against LOLRI in % ([16]; dosage 320 g/ha): 80%

Second part, the compound before the results:

Row | SMILES | Post-emergence action against TRZAS in % [8] [%] | Post-emergence action against ORYSA in % [9, 17] [%] | Post-emergence action against POLCO in % ([1]; dosage 320 g/ha) [%] | Post-emergence action against VERPE in % ([2]; 320 g/ha, VERPE) [%] | Post-emergence action against VERPE in % ([2]; dosage 80 g/ha) [%] | Post-emergence action against ALOMY in % ([3]; 320 g/ha) [%] | Post-emergence action against ABUTH in % ([4]; 80 g/ha) [%] | Post-emergence action against ABUTH in % ([4]; 320 g/ha) [%] | Post-emergence action against ECHCG in % ([5]; dosage 80 g/ha) [%] | Post-emergence action against ECHCG in % ([5]; dosage 320 g/ha) [%] | Post-emergence action against SETVI in % ([6]; dosage 320 g/ha) [%] | Post-emergence action against VIOTR in % ([7]; 80 g/ha) [%] | Post-emergence action against VIOTR in % ([7]; 320 g/ha) [%] | Post-emergence action against AMARE in % [11, 19] [%] | Post-emergence action against MATIN in % ([12]; dosage 80 g/ha) [%] | Post-emergence action against MATIN in % ([12]; dosage 320 g/ha) [%] | Post-emergence action against PHBPU in % ([13]; dosage 80 g/ha) [%] | Post-emergence action against PHBPU in % ([13]; dosage 320 g/ha) [%] | Post-emergence action against AVEFA in % [14] [%] | Post-emergence action against DIGSA in % ([15]; 320 g/ha) [%] | also measured
3 | Cc1cccnc1-n1nc(OCC(=O)O)c(Cl)c1-c1cncc(F)c1 [Example I-182] | 10 | 10 | 90 | 90 | 80 | 80 | 80 | 80 | 90 | 90 | 80 | 80 | 90 | 90 | 80 | 90 | 90 | 90 | 90 | 100 | Post-emergence action against POLCO in % ([1]; dosage 80 g/ha): 80%; Post-emergence action against SETVI in % ([6]; dosage 80 g/ha): 80%; Post-emergence action against ZEAMX in % (crop plant compatibility) [10]: 10%; Post-emergence action against ZEAMX in % ([10]; 80 g/ha): 20%; Post-emergence action against AMARE in % [11, 18]: 80%; Post-emergence action against DIGSA in % ([15]; 80 g/ha): 90%
4 | CCOC(=O)COc1nn(-c2ncccc2C)c(-c2cncc(F)c2)c1Cl [Example I-181] | 20 | 0 | 80 | 90 | 90 | 90 | 80 | 80 | 90 | 100 | 90 | 90 | 90 | 90 | 80 | 80 | 90 | 100 | 90 | 90 | Post-emergence action against POLCO in % ([1]; dosage 80 g/ha): 80%; Post-emergence action against ALOMY in % ([3]; 80 g/ha): 80%; Post-emergence action against SETVI in % ([6]; dosage 80 g/ha): 80%; Post-emergence action against ZEAMX in % (crop plant compatibility) [10]: 20%; Post-emergence action against AMARE in % [11, 18]: 80%; Post-emergence action against DIGSA in % ([15]; 80 g/ha): 90%; Post-emergence action against LOLRI in % ([16]; dosage 320 g/ha): 80%
5 | CCOC(=O)[C@@H](C)Oc1nn(-c2ncccc2F)c(-c2cncc(F)c2)c1Cl [Example I-145] | 20 | 0 | 90 | 90 | 90 | 90 | 90 | 90 | 90 | 90 | 90 | 90 | 90 | 80 | 80 | 90 | 90 | 90 | 90 | 90 | Post-emergence action against POLCO in % ([1]; dosage 80 g/ha): 90%; Post-emergence action against ALOMY in % ([3]; 80 g/ha): 80%; Post-emergence action against SETVI in % ([6]; dosage 80 g/ha): 90%; Post-emergence action against AMARE in % [11, 18]: 80%; Post-emergence action against LOLRI in % ([16]; dosage 80 g/ha): 90%; Post-emergence action against LOLRI in % ([16]; dosage 320 g/ha): 90%
6 | COC(=O)COc1nn(-c2ncccc2C)c(-c2cncc(F)c2)c1Br [Example I-179] | 0 | 0 | 90 | 90 | 90 | 90 | 80 | 80 | 90 | 90 | 90 | 90 | 90 | 90 | 80 | 90 | 80 | 90 | 90 | 90 | Post-emergence action against POLCO in % ([1]; dosage 80 g/ha): 90%; Post-emergence action against SETVI in % ([6]; dosage 80 g/ha): 90%; Post-emergence action against ORYSA in % [9, 20]: 20%; Post-emergence action against ZEAMX in % ([10]; 80 g/ha): 20%; Post-emergence action against AMARE in % [11, 18]: 90%; Post-emergence action against DIGSA in % ([15]; 80 g/ha): 90%
7 | COC(=O)COc1nn(-c2ncccc2F)c(-c2ccnc(F)c2)c1Br [Example I-130] | 20 | 0 | 80 | 80 | 80 | 90 | 80 | 90 | – | 90 | – | 90 | 90 | 90 | – | 80 | – | 80 | 90 | 90 | Post-emergence action against ZEAMX in % (crop plant compatibility) [10]: 0%; Post-emergence action against ZEAMX in % ([10]; 80 g/ha): 0%; Post-emergence action against ZEAMX in % ([10]; 320 g/ha): 20%; Post-emergence action against AMARE in % [11, 18]: 80%; Post-emergence action against DIGSA in % ([15]; 80 g/ha): 80%; Post-emergence action against LOLRI in % ([16]; dosage 320 g/ha): 90%
8 | C[C@@H](Oc1nn(-c2ncccc2F)c(-c2cncc(F)c2)c1Cl)C(=O)O [Example I-165] | 20 | 0 | 90 | 90 | 90 | 100 | 90 | 90 | 90 | 90 | 90 | 90 | 90 | 80 | 80 | 90 | 80 | 90 | 90 | 90 | Post-emergence action against POLCO in % ([1]; dosage 80 g/ha): 80%; Post-emergence action against SETVI in % ([6]; dosage 80 g/ha): 90%; Post-emergence action against DIGSA in % ([15]; 80 g/ha): 90%; Post-emergence action against LOLRI in % ([16]; dosage 320 g/ha): 100%
